From patent US5795892A, “4-aminopyridazines, method of preparing them and drugs containing these compounds” (Boehringer Manneim GmbH, priority 1994, dated 1998)

Tests used:
human α thrombin = target: T1, human α thrombin (Homo sapiens, UniProt P00734); assay: Thrombin inhibition; format: biochemical; settings: pH=7.5, 25° C., substrate H-(D)-Phe-Pro-Arg-pNA
T1 construct: human α thrombin; purchased Sigma
Protocol: The kinetic measurements were carried out in 0.1M phosphate buffer that contained 0.2M sodium chloride and 0.5% polyethylene glycol 6000 at a pH=7.5 and 25° C. with the substrate H-(D)-Phe-Pro-Arg-pNA (Kabi) and human α thrombin (Sigma, specific activity=2150 NIH-units/mg) in polystyrene semi-microcuvettes in a total volume of 1 ml.
In a preliminary test each active substance was determined as to whether it inhibits thrombin rapidly or slowly. For this the reaction was firstly started by adding 0.03 NIH units thrombin to a 100 μM solution of the substrate and the active substance. In a second experiment, substrate was added to a solution of thrombin and the active substance which had been incubated for 5 minutes. The increase in the concentration of p-nitroaniline with time was monitored spectroscopically (UV-VIS spectrophotometer Lambda-2 from the Perkin-Elmer Company) at 405 nm for 12 min.
Since the measured curves obtained in both experiments were linear and parallel, the active substances of the following table are rapid thrombin inhibitors.
The inhibition constants Ki were then determined as follows. The substrate was used at concentrations of 100 μM, 50 μM, 30 μM, 20 μM and at each substrate concentration one measurement was carried out without inhibitor and three measurements were carried out in the presence of various concentrations of the inhibitors listed in the following table. The reactions were started by the addition of thrombin. The increase in absorbance at 405 nm due to the formation of p-nitroaniline was monitored over a time period of 12 minutes. Measurement points (time versus absorbance) were transferred to a PC at intervals of 20 seconds. The rates Vo (change in absorbance per second; measurements without inhibitor) and Vi (measurements with inhibitor) are determined by linear regression. Only that part of each measurement was used in which the substrate concentration had decreased by less than 15%. Km ' and Vmax were determined from a measurement series (constant inhibitor concentration, variable substrate concentrations) by a non-linear fit to the equation [formula] Finally Ki was calculated from the entire series of measurements by non-linear fitting to the equation [formula]
The inhibition constants Ki of the active substances are stated in the following table in units of μM.

thrombin = target: T2, thrombin (Equus caballus, UniProt F7BFJ1); assay: Thrombin time; format: biochemical, horse thrombin, human plasma; settings: 37° C.; for TT5 (thrombin time as a difference to the control): 5 μM active substance in human plasma; for TT50 (thrombin time as a difference to the control): 50 μM active substance in human plasma
T2 construct: mature thrombin (light and heavy chain) cut from prothrombin; clotting of human fibrinogen
Protocol: A conventional test in clinical coagulation diagnostics is the thrombin time. This parameter measures the action of thrombin on fibrinogen and the formation of clots. Inhibitors of thrombin result in an extended thrombin time.
In order to obtain plasma 9 parts of fresh blood from healthy donors was mixed with one part of sodium citrate solution (0.11 mol/l) and it was centrifuged for 10 minutes at room temperature at ca. 3000 r.p.m. The plasma was removed by pipette and can be stored at room temperature for ca. 8 hours.
200 μl citrate plasma was incubated for 2 minutes at 37° C. in a ball coagulometer (KC10 from the Amelung Company). 10 μl dimethylsulfoxide (DMSO) or a solution of the active substance in DMSO was added to 190 μl pre-heated thrombin reagent (Boehringer Mannheim GmbH; contains ca. 3 U/ml horse thrombin and 0.0125M Ca^++). On addition of this 200 μl solution to the plasma a stopwatch was started and the time at which coagulation starts was determined.
The measured thrombin times in seconds are given in the following table as a difference to the control. The concentrations of the active substances in human plasma were 50 μM (TT50) and 5 μM (TT5).

## Cc1cc(NS(=O)(=O)c2ccccc2)cc(OCCNc2ccnnc2)c1 [Example 1, N-{3-methyl-5-[2-(pyridazin-4-ylamino)-ethoxy]-phenyl}-benzenesulfonamide]
Human α thrombin
  Ki: 0.07 µM
thrombin
  TT5 (thrombin time as a difference to the control): 23 s
  TT50 (thrombin time as a difference to the control): 126 s

## Cc1cc(OCCNc2ccnnc2)cc(OS(=O)(=O)c2cccnc2)c1 [Example 4]
Human α thrombin
  Ki: 0.06 µM
thrombin
  TT5 (thrombin time as a difference to the control): 38 s
  TT50 (thrombin time as a difference to the control): 194 s

## Cc1cc(OCCNc2ccnnc2)cc(OS(=O)(=O)c2cccc(C#N)c2)c1 [Example 9, 3-Cyanobenzenesulfonic acid-3-methyl-5-[2-(pyridazin-4-ylamino)-ethoxy]-phenyl ester]
Human α thrombin
  Ki: 0.14 µM
thrombin
  TT5 (thrombin time as a difference to the control): 31 s
  TT50 (thrombin time as a difference to the control): 128 s

## Cc1cc(OCCNc2ccnnc2)cc(OS(=O)(=O)c2cccc(C(N)=S)c2)c1 [Example 10, 3-Thiocarbamoyl-benzenesulfonic acid-3-methyl-5-[2-(pyridazin-4-ylamino)-ethoxy]-phenyl ester]
Human α thrombin
  Ki: 0.17 µM
thrombin
  TT5 (thrombin time as a difference to the control): 13 s
  TT50 (thrombin time as a difference to the control): 71 s

## Cc1cc(OCCNc2ccnnc2)cc(OS(=O)(=O)c2ccc(C#N)cc2)c1 [Example 11, 4-Cyanobenzenesulfonic acid-3-methyl-5-[2-(pyridazin-4-ylamino)-ethoxy]-phenyl ester]
Human α thrombin
  Ki: 0.2 µM
thrombin
  TT5 (thrombin time as a difference to the control): 18 s
  TT50 (thrombin time as a difference to the control): 81 s

## CCOC(=O)COc1cccc(S(=O)(=O)Oc2cc(C)cc(OCCNc3ccnnc3)c2)c1 [Example 13, (3-{3-Methyl-5-[2-(pyridazin-4-ylamino)-ethoxy]-phenoxy-sulfonyl}-phenoxy)-acetic acid ethyl ester]
Human α thrombin
  Ki: 0.09 µM
thrombin
  TT5 (thrombin time as a difference to the control): 0 s
  TT50 (thrombin time as a difference to the control): 49 s

## Cc1cc(NS(=O)(=O)C2CCCCC2)cc(OCCNc2ccnnc2)c1 [Example 22, N-{3-Methyl-5-[2-(pyridazin-4-ylamino)-ethoxy]-phenyl}-cyclohexanesulfonamide]
Human α thrombin
  Ki: 0.35 µM
thrombin
  TT5 (thrombin time as a difference to the control): 11 s
  TT50 (thrombin time as a difference to the control): 90 s
